According to US20250241894A1, “TREATMENT OF MENTAL DISORDERS” (GH RESEARCH IRELAND LIMITED, priority 2022, published 2025):

Experiments:
[1] = Pharmacokinetics of 5-MeO-DMT and bufotenine after a single inhaled dose; format: in vivo, human
Protocol: Blood samples were obtained at 1; 2; 4; 7; 10; 15; 20; 30; 45 min and 1; 1.5; 2; 3; 4 hours after administration.
PK parameters were generated by algebraic analysis of the concentration versus time plots for each individual. The analysis was carried out using the software Phoenix WinNonlin 6.3.

[2] = test system: Salmonella typhimurium (TA98, TA100, TA1535 and TA1537); assay: Bacterial mutation test with and without S-9; format: cell-based; details: up to 5000 μg/plate, absence and presence of S-9
Protocol: (§1) These conditions included treatments at concentrations up to 5000 μg/plate (the maximum recommended concentration according to current regulatory guidelines), in the absence and in the presence of a rat liver metabolic activation system (S-9).

[3] = test system: Escherichia coli (WP2 uvrA pKM101); assay: Bacterial mutation test with and without S-9; format: cell-based; details: up to 5000 μg/plate, absence and presence of S-9
Protocol: as §1

[4] = test system: patients with treatment-resistant major depressive disorder (TRD); assay: Phase 1/2 clinical trial of inhaled 5-MeO-DMT in TRD: Part A single dose 12 mg or 18 mg; Part B individualized dosing regimen (IDR) 6, 12, 18 mg in a single day
Protocol: Patients were assigned to different groups. In the context of the present invention, the group who received a single, 12 mg dose and the group who underwent an intra-day individualized dosing regimen (IDR) that allowed for multiple, escalating doses (6 mg, 12 mg and 18 mg) within a single day, driven by the intensity of the patient-reported psychedelic experience are of interest.
This trial was designed in two parts. Part A was an open-label, single-arm, single-dose Phase 1 trial with two dose levels (12 mg (n=4) and 18 mg (n=4)). […] The primary endpoint of Part B was to assess the effects on the severity of depression, as assessed by the proportion of patients in remission on day seven after dosing, defined as a MADRS total score of less than or equal to 10.

[5] = 12 mg n=4, 2 hours, baseline 16

Compound: COc1ccc2[nH]cc(CCN(C)C)c2c1 [5-MeO-DMT]
- Detectability in plasma ([1]; after 3 hours, 6, 12, 18 mg): no longer detectable
- Accumulation upon repeated administration ([1]; within a time frame of 1 to 4 hours): No accumulation
- Mutation induction [2]: did not induce mutation
- Mutation induction [3]: did not induce mutation
- MADRS Suicidal Thoughts improvement ([4]; 12 mg n=4, 2 hours, baseline 8): 5 points
- MADRS Inner Tension improvement ([4]; 12 mg n=4, 2 hours, baseline 13): 11 points
- MADRS Concentration Difficulties improvement [4, 5]: 9 points
- MADRS Inability to Feel improvement [4, 5]: 7 points
- MADRS Lassitude improvement [4, 5]: 6 points
- MADRS Pessimistic Thoughts improvement [4, 5]: 8 points
- BPRS Blunted Affect improvement ([4]; 12 mg n=4, 3 hours, baseline 11): 3 points
- BPRS Emotional Withdrawal improvement ([4]; 12 mg n=4, 3 hours, baseline 13): 2 points
- BPRS Tension improvement ([4]; 12 mg n=4, 3 hours, baseline 14): 5 points
- BPRS Guilt Feelings improvement ([4]; 12 mg n=4, 3 hours, baseline 18): 9 points
- BPRS Anxiety improvement ([4]; 12 mg n=4, 3 hours, baseline 25): 14 points
- MADRS Suicidal Thoughts improvement ([4]; 12 mg n=4, Day 1, baseline 8): 3 points
- BPRS Blunted Affect improvement ([4]; 12 mg n=4, Day 1, baseline 11): 5 points
- MADRS Reduced Sleep improvement ([4]; 12 mg n=4, Day 1, baseline 12): 2 points
- BPRS Emotional Withdrawal improvement ([4]; 12 mg n=4, Day 1, baseline 13): 5 points
- MADRS Inner Tension improvement ([4]; 12 mg n=4, Day 1, baseline 13): 10 points
- BPRS Tension improvement ([4]; 12 mg n=4, Day 1, baseline 14): 8 points
- MADRS Concentration Difficulties improvement ([4]; 12 mg n=4, Day 1, baseline 16): 14 points
- MADRS Inability to Feel improvement ([4]; 12 mg n=4, Day 1, baseline 16): 15 points
- MADRS Lassitude improvement ([4]; 12 mg n=4, Day 1, baseline 16): 16 points
- MADRS Pessimistic Thoughts improvement ([4]; 12 mg n=4, Day 1, baseline 16): 9 points
- BPRS Guilt Feelings improvement ([4]; 12 mg n=4, Day 1, baseline 18): 13 points
- BPRS Anxiety improvement ([4]; 12 mg n=4, Day 1, baseline 25): 19 points
- MADRS Suicidal Thoughts improvement ([4]; 12 mg n=4, Day 7, baseline 8): 1 points
- BPRS Blunted Affect improvement ([4]; 12 mg n=4, Day 7, baseline 11): 6 points
- MADRS Reduced Sleep improvement ([4]; 12 mg n=4, Day 7, baseline 12): 6 points
- BPRS Emotional Withdrawal improvement ([4]; 12 mg n=4, Day 7, baseline 13): 7 points
- MADRS Inner Tension improvement ([4]; 12 mg n=4, Day 7, baseline 13): 8 points
- BPRS Tension improvement ([4]; 12 mg n=4, Day 7, baseline 14): 8 points
- MADRS Concentration Difficulties improvement ([4]; 12 mg n=4, Day 7, baseline 16): 13 points
- MADRS Inability to Feel improvement ([4]; 12 mg n=4, Day 7, baseline 16): 15 points
- MADRS Lassitude improvement ([4]; 12 mg n=4, Day 7, baseline 16): 13 points
- MADRS Pessimistic Thoughts improvement ([4]; 12 mg n=4, Day 7, baseline 16): 8 points
- BPRS Guilt Feelings improvement ([4]; 12 mg n=4, Day 7, baseline 18): 13 points
- BPRS Anxiety improvement ([4]; 12 mg n=4, Day 7, baseline 25): 19 points
- MADRS Suicidal Thoughts improvement ([4]; IDR n=8, 2 hours, baseline 11): 8 points
- MADRS Inner Tension improvement ([4]; IDR n=8, 2 hours, baseline 26): 15 points
- MADRS Lassitude improvement ([4]; IDR n=8, 2 hours, baseline 27): 17 points
- MADRS Pessimistic Thoughts improvement ([4]; IDR n=8, 2 hours, baseline 28): 21 points
- MADRS Concentration Difficulties improvement ([4]; IDR n=8, 2 hours, baseline 30): 19 points
- MADRS Inability to Feel improvement ([4]; IDR n=8, 2 hours, baseline 36): 24 points
- BPRS Emotional Withdrawal improvement ([4]; IDR n=8, 3 hours, baseline 13): 5 points
- BPRS Blunted Affect improvement ([4]; IDR n=8, 3 hours, baseline 15): 4 points
- BPRS Tension improvement ([4]; IDR n=8, 3 hours, baseline 16): 5 points
- BPRS Guilt Feelings improvement ([4]; IDR n=8, 3 hours, baseline 34): 20 points
- BPRS Anxiety improvement ([4]; IDR n=8, 3 hours, baseline 37): 18 points
- MADRS Suicidal Thoughts improvement ([4]; IDR n=8, Day 1, baseline 11): 10 points
- BPRS Emotional Withdrawal improvement ([4]; IDR n=8, Day 1, baseline 13): 5 points
- BPRS Blunted Affect improvement ([4]; IDR n=8, Day 1, baseline 15): 7 points
- BPRS Tension improvement ([4]; IDR n=8, Day 1, baseline 16): 5 points
- MADRS Reduced Sleep improvement ([4]; IDR n=8, Day 1, baseline 25): 13 points
- MADRS Inner Tension improvement ([4]; IDR n=8, Day 1, baseline 26): 20 points
- MADRS Lassitude improvement ([4]; IDR n=8, Day 1, baseline 27): 22 points
- MADRS Pessimistic Thoughts improvement ([4]; IDR n=8, Day 1, baseline 28): 24 points
- MADRS Concentration Difficulties improvement ([4]; IDR n=8, Day 1, baseline 30): 29 points
- BPRS Guilt Feelings improvement ([4]; IDR n=8, Day 1, baseline 34): 23 points
- MADRS Inability to Feel improvement ([4]; IDR n=8, Day 1, baseline 36): 34 points
- BPRS Anxiety improvement ([4]; IDR n=8, Day 1, baseline 37): 21 points
- MADRS Suicidal Thoughts improvement ([4]; IDR n=8, Day 7, baseline 11): 8 points
- BPRS Emotional Withdrawal improvement ([4]; IDR n=8, Day 7, baseline 13): 5 points
- BPRS Blunted Affect improvement ([4]; IDR n=8, Day 7, baseline 15): 7 points
- BPRS Tension improvement ([4]; IDR n=8, Day 7, baseline 16): 6 points
- MADRS Reduced Sleep improvement ([4]; IDR n=8, Day 7, baseline 25): 16 points
- MADRS Inner Tension improvement ([4]; IDR n=8, Day 7, baseline 26): 14 points
- MADRS Lassitude improvement ([4]; IDR n=8, Day 7, baseline 27): 24 points
- MADRS Pessimistic Thoughts improvement ([4]; IDR n=8, Day 7, baseline 28): 25 points
- MADRS Concentration Difficulties improvement ([4]; IDR n=8, Day 7, baseline 30): 21 points
- BPRS Guilt Feelings improvement ([4]; IDR n=8, Day 7, baseline 34): 24 points
- MADRS Inability to Feel improvement ([4]; IDR n=8, Day 7, baseline 36): 30 points
- BPRS Anxiety improvement ([4]; IDR n=8, Day 7, baseline 37): 20 points
- SAEs ([4]; Part A 12 mg and 18 mg): No SAEs
- Severity and outcome of ADRs ([4]; Part A 12 mg and 18 mg): mild and resolved spontaneously
- Proportion of patients in MADRS remission ([4]; Part A 12 mg n=4, day seven): 50%
- Further patients with MADRS clinical response ([4]; Part A 18 mg n=4, day seven): 25%
- Proportion of patients in MADRS remission ([4]; Part A 18 mg n=4, day seven): 25%
- Outcome of ADRs ([4]; Part B IDR): resolved spontaneously
- SAEs ([4]; Part B IDR): No SAEs
- Proportion of patients in MADRS remission (total score <=10) ([4]; Part B IDR n=8, day seven): 87.5%
